The source of these data is patent US6555341B1, “Human theta subunit of the GABAa receptor” (Merck Sharp & Dohme Ltd., priority 1997, dated 2003).

In test [1] the target is T1, GABAA receptor subunit combination α2β1θγ1 (Homo sapiens, UniProt P18505+P47869+Q9UN88).
T1 construct: expressed in transfected cells; host or cells: HEK 293 cells, transient, calcium phosphate precipitation
Description: Whole cell patch-clamp of HEK 293 cells transiently transfected with human GABA-A receptors, GABA concentration-response. The settings on record: HEK 293 cells transiently expressing α2β1θγ1; GABA concentration-response curve. Format: cell-based. As to the method:
(§1) Experiments were performed on HEK 293 cells transiently transfected with human cDNA combinations α2β1 γ1, and α2β1θγ1 (4 μgs of cDNA total per cover-slip) using calcium phosphate precipitation (Chen and Okayama, 1988) as previously described (Hadingham et al, 1993). Glass cover-slips containing the cells in a monolayer culture were transferred to a perspex chamber on the stage of Nikon Diaphot inverted microscope. Cells were continuously perfused with a solution containing 124 mM NaCl, 2 mM KCl, 2 mM CaCl2, 1 mM MgCl2, 1.25 mM KH2PO4, 25 mM NaHCO3, 11 mM D-glucose, at pH 7.2, and observed using phase-contrast optics. Patch-pipettes were pulled with an approximate tip diameter of 2 μm and a resistance of 4MΩ with borosilicate glass and filled with 130 mM CsCl, 10 mM HEPES, 10 mM EGTA, 3 mM Mg^+-ATP, pH adjusted to 7.3 with CsOH. Cells were patch-clamped in whole-cell mode using an Axopatch 200B patch-clamp amplifier. Drug solutions were applied by a double-barrelled pipette assembly, controlled by a stepping motor attached to a Prior manipulator, enabling rapid equilibration around the cell. […] Curves were fitted using a non-linear square-fitting program to the equation f(x)=BMAX/[1+(EC50/x)^n] where x is the drug concentration, EC50 is the concentration of drug eliciting a half-maximal response and n is the Hill coefficient. EC50's were analysed by unpaired students t-test.
On the technique in general: In patch-clamp work, channel activity is measured electrically.

The target of test [2] is T2, GABAA receptor subunit combination α2β1γ1 (Homo sapiens, UniProt P18505+P47869).
T2 construct: expressed in transfected cells; host or cells: HEK 293 cells, transient, calcium phosphate precipitation
T2 sequence (P47869 29-451): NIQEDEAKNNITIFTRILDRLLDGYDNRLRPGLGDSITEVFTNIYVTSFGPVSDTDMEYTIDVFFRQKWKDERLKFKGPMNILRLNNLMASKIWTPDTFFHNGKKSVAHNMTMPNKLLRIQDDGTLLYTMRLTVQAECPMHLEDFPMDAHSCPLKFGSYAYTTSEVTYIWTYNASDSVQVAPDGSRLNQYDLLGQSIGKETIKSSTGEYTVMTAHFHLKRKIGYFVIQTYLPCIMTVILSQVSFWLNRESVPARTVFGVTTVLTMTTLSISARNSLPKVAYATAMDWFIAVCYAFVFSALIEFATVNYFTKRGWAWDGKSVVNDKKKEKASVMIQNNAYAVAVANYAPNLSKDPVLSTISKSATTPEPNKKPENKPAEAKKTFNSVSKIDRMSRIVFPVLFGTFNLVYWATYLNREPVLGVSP
T2 sequence (P18505 26-474): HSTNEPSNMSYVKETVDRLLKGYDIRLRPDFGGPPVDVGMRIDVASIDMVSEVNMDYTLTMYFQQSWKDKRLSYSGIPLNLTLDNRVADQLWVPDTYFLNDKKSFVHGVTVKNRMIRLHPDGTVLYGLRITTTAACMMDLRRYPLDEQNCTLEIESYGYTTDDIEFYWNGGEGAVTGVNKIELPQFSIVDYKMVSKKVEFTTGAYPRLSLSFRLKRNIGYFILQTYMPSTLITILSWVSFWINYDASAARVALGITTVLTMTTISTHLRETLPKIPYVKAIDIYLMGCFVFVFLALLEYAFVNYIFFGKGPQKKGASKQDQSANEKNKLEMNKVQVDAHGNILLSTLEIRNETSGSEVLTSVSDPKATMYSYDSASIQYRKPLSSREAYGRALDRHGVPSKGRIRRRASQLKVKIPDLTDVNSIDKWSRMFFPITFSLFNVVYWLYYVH
T2 sequence (Q8N1C3 36-465 partner): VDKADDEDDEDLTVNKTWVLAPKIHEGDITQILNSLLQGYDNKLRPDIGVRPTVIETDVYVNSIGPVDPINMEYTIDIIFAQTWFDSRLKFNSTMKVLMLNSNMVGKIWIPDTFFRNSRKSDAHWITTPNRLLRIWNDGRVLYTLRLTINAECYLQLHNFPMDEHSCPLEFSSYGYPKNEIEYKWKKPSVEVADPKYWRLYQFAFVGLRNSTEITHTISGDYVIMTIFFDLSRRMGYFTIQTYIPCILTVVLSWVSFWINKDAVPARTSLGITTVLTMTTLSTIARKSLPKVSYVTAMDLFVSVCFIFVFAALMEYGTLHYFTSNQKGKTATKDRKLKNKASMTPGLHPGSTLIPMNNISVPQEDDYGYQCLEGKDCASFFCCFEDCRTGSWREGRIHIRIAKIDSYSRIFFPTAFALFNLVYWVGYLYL
The test is described as above. Format: cell-based. The settings on record: HEK 293 cells transiently expressing α2β1γ1; GABA concentration-response curve. As to the method: as §1

T1 sequence (Q9UN88 22-632, one chain of several): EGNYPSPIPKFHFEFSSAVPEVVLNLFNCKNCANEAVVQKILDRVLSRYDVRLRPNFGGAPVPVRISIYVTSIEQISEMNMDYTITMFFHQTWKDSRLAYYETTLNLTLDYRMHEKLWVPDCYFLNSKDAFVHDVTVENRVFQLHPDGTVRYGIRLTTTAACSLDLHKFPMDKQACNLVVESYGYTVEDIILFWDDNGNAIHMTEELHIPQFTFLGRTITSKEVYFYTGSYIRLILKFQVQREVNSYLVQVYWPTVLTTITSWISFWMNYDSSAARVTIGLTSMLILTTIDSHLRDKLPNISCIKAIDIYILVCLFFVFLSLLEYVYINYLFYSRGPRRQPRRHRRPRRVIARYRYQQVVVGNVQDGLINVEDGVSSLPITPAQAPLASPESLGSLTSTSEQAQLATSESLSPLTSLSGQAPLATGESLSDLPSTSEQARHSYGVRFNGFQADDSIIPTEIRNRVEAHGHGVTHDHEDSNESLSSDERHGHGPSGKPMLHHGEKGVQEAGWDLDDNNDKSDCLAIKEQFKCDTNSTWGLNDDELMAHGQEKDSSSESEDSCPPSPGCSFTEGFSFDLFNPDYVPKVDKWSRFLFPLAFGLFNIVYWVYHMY

As to `NCCCC(=O)O` [GABA, Gamma-amino butyric acid], the “Slope (Hill coefficient)” value in test [1] is given as 1.5 ± 0.1; in test [2], 1.6 ± 0.2.
